Laboratory results as given in patent US10703764B2, “Benzopiperazine compositions as BET bromodomain inhibitors” (FORMA Therapeutics, Inc., priority 2013, dated 2020).
Like-named read-outs stand apart in the source and are kept apart here.

Legend:
[1] = system: MV4-11 cells; assay: Oncology cell growth assay (3-day proliferation, CellTiter-Glo); type: cell-based; settings: Homo sapiens, AML cell line MV4-11, 72 hours, compounds grouped by IC50 range, read-out: MV4-11 IC50 (inhibition of proliferation, gIC50)
Procedure, shortened: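 MV4-11 AML cells (RPMI 1640, 10% FBS) plated at 3000 cells/well and exposed 72 h to compound at final 10 to 0.0045 μM (3-fold series). Viability read by CellTiter-Glo luminescence; gIC50 from four-parameter logistic fit between DMSO control and no-cell background.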

[2] = target: T1, BRD4 BD2 (Homo sapiens, UniProt O60885); assay: AlphaScreen binding assay, BRD4 Bromodomain 2
T1 construct: made in house
Procedure, shortened: (§1)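 An AlphaScreen competition format was used with His-BRD4 BD1 or BD2 and biotin-H4 K5/8/12/16-acetyl peptide, each at matched final levels of 50 nM (BD1) or 100 nM (BD2). Incubation in HEPES/NaCl buffer with 0.1% BSA and 0.01% Triton X-100 ran ≥1 h before IC50 determination.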

[3] = target: T2, BRD4 BD1 (Homo sapiens, UniProt O60885); assay: AlphaScreen binding assay, BRD4 Bromodomain 1
T2 construct: made in house
Procedure, shortened: as §1

| Structure (SMILES) | IC50 ([1]; MV4-11, 72 h) [µM] | IC50 [2] [µM] | IC50 [3] [µM] | IC50 [1] [µM] |
| --- | --- | --- | --- | --- |
| CC(=O)N1c2ccc(-c3ccc(S(=O)(=O)N(C)C)cc3)cc2N(C(=O)OC(C)C)C[C@@H]1C [Example I-1126] | 0.1 to 0.5 | 0.05 to 0.5 | 1 to 10 |  |
| CC(=O)N1c2ccc(-c3ccc(NC(=O)N4CCOCC4)cc3)cc2N(C(=O)c2ccco2)C[C@@H]1C [Example I-285] | 0.1 to 0.5 | < 0.05 | 1 to 10 |  |
| CC(=O)N1c2ccc(-c3cnn(C4CCCS(=O)(=O)C4)c3)cc2N(C(=O)C2CC2)C[C@@H]1C (stereo partly drawn) [Example I-1310] | > 0.5 | 0.05 to 0.5 | 0.1 to 1 |  |
| CC(=O)N1c2ccc(-c3ccc(S(C)(=O)=O)cc3)cc2N(C(=O)Oc2ccccc2)C[C@@H]1C [Example I-223] | < 0.1 | < 0.05 | 0.1 to 1 |  |
| CC(=O)N1c2ccc(-c3cnn(C4CC4)c3)cc2N(C(=O)Oc2ccc3cnccc3c2)C[C@@H]1C [Example I-1192] | < 0.1 | < 0.05 | 0.1 to 1 |  |
| COC(=O)Nc1cc2c(cc1-c1cnn(C3CC3)c1)N(C(=O)OC(C)C)C[C@H](C)N2C(C)=O [Example I-204, Isopropyl (S)-4-acetyl-7-(1-cyclopropyl-1H-pyrazol-4-yl)-6-((methoxycarbonyl)amino)-3-methyl-3,4-dihydroquinoxaline-1(2H)-carboxylate] | > 0.5 | 0.05 to 0.5 | 0.1 to 1 |  |
| CC(=O)N1c2ccc(-c3ccc(S(=O)(=O)NC(C)(C)C)cc3)cc2N(C(=O)C2CCC2)C[C@@H]1C [Example I-1128] | 0.1 to 0.5 | 0.05 to 0.5 | 1 to 10 |  |
| CC(=O)N1c2ccc(-c3cnn(CC4CCOCC4)c3)cc2N(C(=O)OC(C)C)C[C@@H]1C [Example I-608] | 0.1 to 0.5 | 0.05 to 0.5 | 0.1 to 1 |  |
| CC(=O)N1c2ccc(-c3ccc(C(=O)N(C)CCN(C)C)cc3)cc2N(C(=O)OC(C)C)C[C@@H]1C [Example I-539] | 0.1 to 0.5 | 0.05 to 0.5 | 0.1 to 1 |  |
| COC(=O)N1c2ccc(-c3cnn(CC4CC4)c3)cc2N(C(=O)OC(C)C)C[C@@H]1C [Example I-325] | > 0.5 | 0.05 to 0.5 | 0.1 to 1 |  |
| CC(=O)N1c2ccc(-c3ccc(OCCS(C)(=O)=O)cc3)cc2N(C(=O)OC2CCCCC2)C[C@@H]1C [Example I-1251] | 0.1 to 0.5 | 0.05 to 0.5 | 0.1 to 1 |  |
| CC(=O)N1c2ccc(-c3cnn(C4CC4)c3)cc2N(c2noc3ccccc23)C[C@@H]1C [Example I-95, (S)-1-(4-(benzo[d]isoxazol-3-yl)-6-(1-cyclopropyl-1H-pyrazol-4-yl)-2-methyl-3,4-dihydroquinoxalin-1(2H)-yl)ethanone] |  | < 0.05 | < 0.1 | 0.1 to 0.5 |
| CC(=O)N1c2ccc(-c3ccc(S(=O)(=O)C(C)C)cc3)cc2N(C(=O)C2CCC2)C[C@@H]1C [Example I-1063] | > 0.5 | 0.05 to 0.5 | 1 to 10 |  |
| CC(=O)N1c2ccc(-c3cnc(C)s3)cc2N(C(=O)c2ccco2)C[C@@H]1C [Example I-15, (S)-1-(4-(furan-2-carbonyl)-2-methyl-6-(2-methylthiazol-5-yl)-3,4-dihydroquinoxalin-1(2H)-yl)ethanone] | 0.1 to 0.5 | < 0.05 | 1 to 10 |  |
| CC(=O)N1c2ccc(-c3ccc(S(C)(=O)=O)cc3)cc2N(c2n[nH]c3ccccc23)C[C@@H]1C [Example I-94, (S)-1-(4-(1H-indazol-3-yl)-2-methyl-6-(4-(methylsulfonyl)phenyl)-3,4-dihydroquinoxalin-1 (2H)-yl)ethan-1-one] | < 0.1 | 0.05 to 0.5 | 0.1 to 1 |  |
| COc1cc(C)ccc1OC(=O)N1C[C@H](C)N(C(C)=O)c2ccc(-c3cnn(C4CC4)c3)cc21 [Example I-506] | < 0.1 | 0.05 to 0.5 | 0.1 to 1 |  |
| CC(C)OC(=O)N1C[C@H](C)N(C(=O)C2CC2)c2ccc(-c3ccc(C(=O)N4CCNCC4)cc3)cc21 [Example I-558] | 0.1 to 0.5 | 0.05 to 0.5 | 0.1 to 1 |  |
| CC(=O)N1c2ccc(-c3cccc4c3OCO4)cc2N(C(=O)c2ccco2)C[C@@H]1C [Example I-849] | > 0.5 | 0.05 to 0.5 | 0.1 to 1 |  |
| CC(=O)N1c2ccc(-c3cnn(Cc4cncnc4)c3)cc2N(C(=O)C2CC2)C[C@@H]1C [Example I-128, (S)-1-(4-(cyclopropanecarbonyl)-2-methyl-6-(1-(pyrimidin-5-ylmethyl)-1H-pyrazol-4-yl)-3,4-dihydroquinoxalin-1(2H)-yl)ethanone] | 0.1 to 0.5 | < 0.05 | 1 to 10 |  |
| CC(=O)N1c2ccc(-c3cnn(CC(N)=O)c3)cc2N(C(=O)OC(C)C)C[C@@H]1C [Example I-304] | 0.1 to 0.5 | 0.05 to 0.5 | 0.1 to 1 |  |

| Structure (SMILES) | IC50 ([1]; MV4-11, 72 h) [µM] | IC50 [2] [µM] | IC50 [3] [µM] | IC50 [1] [µM] |
| --- | --- | --- | --- | --- |
| COc1ccc(-c2ccc3c(c2)N(C(=O)OC(C)C)C[C@H](C)N3C(C)=O)cc1N1CCCS1(=O)=O [Example I-1170] | 0.1 to 0.5 | 0.05 to 0.5 | 0.1 to 1 |  |
| CC(=O)N1c2ccc(-c3cnn(C4COC4)c3)cc2N(C(=O)OC(C)C)C[C@@H]1C [Example I-144, (S)-isopropyl 4-acetyl-3-methyl-7-(1-(oxetan-3-yl)-1H-pyrazol-4-yl)-3,4-dihydroquinoxaline-1(2H)-carboxylate] | 0.1 to 0.5 | < 0.05 | < 0.1 |  |
| CCCOC(=O)N1C[C@H](C)N(C(C)=O)c2ccc(-c3ccc(S(C)(=O)=O)cc3)cc21 [Example I-252] | 0.1 to 0.5 | 0.05 to 0.5 | 0.1 to 1 |  |
| COC(=O)N1c2ccc(-c3cnn(CC4COC4)c3)cc2N(C(=O)OC(C)C)C[C@@H]1C [Example I-644] | > 0.5 | 0.05 to 0.5 | 0.1 to 1 |  |
| CCOC(=O)N1C[C@H](C)N(C(C)=O)c2ccc(-c3ccc(N4CCCC4=O)cc3)cc21 [Example I-1133] | 0.1 to 0.5 | 0.05 to 0.5 | 1 to 10 |  |
| CC(=O)N1c2ccc(-c3cnn(Cc4cccnc4)c3)cc2N(C(=O)OC(C)C)C[C@@H]1C [Example I-119, (S)-isopropyl 4-acetyl-3-methyl-7-(1-(pyridin-3-ylmethyl)-1H-pyrazol-4-yl)-3,4-dihydroquinoxaline-1(2H)-carboxylate] | 0.1 to 0.5 | < 0.05 | 0.1 to 1 |  |
| CCOC(=O)N1C[C@H](C)N(C(C)=O)c2ccc(-c3cccc(S(=O)(=O)NCCO)c3)cc21 [Example I-1110] | 0.1 to 0.5 | 0.05 to 0.5 | 1 to 10 |  |
| CC(=O)N1c2ccc(-c3ccc(S(=O)(=O)CC4CC4)cc3)cc2N(C(=O)OC2CCCCC2)C[C@@H]1C [Example I-1237] | 0.1 to 0.5 | 0.05 to 0.5 | 0.1 to 1 |  |
| CCOC(=O)N1C[C@H](C)N(C(C)=O)c2ccc(-c3cc(Cl)cc(S(C)(=O)=O)c3)cc21 [Example I-1096] | > 0.5 | > 0.5 | 1 to 10 |  |
| CC(=O)N1c2ccc(-c3cnn(CC4CCOCC4)c3)cc2N(C(=O)C2CC2)C[C@@H]1C [Example I-657] | 0.1 to 0.5 | 0.05 to 0.5 | 0.1 to 1 |  |
| CC(=O)N1c2ccc(-c3cnn(C4CCOCC4)c3)cc2N(C(=O)OC2CCCC2)C[C@@H]1C [Example I-1147] | < 0.1 | < 0.05 | < 0.1 |  |
| CCNS(=O)(=O)c1ccc(-c2ccc3c(c2)N(C(=O)OCC)C[C@H](C)N3C(C)=O)cc1 [Example I-1137] | 0.1 to 0.5 | 0.05 to 0.5 | 0.1 to 1 |  |
| CC(=O)N1c2ccc(-c3ccc(C(=O)N4CCN(C=O)CC4)cc3)cc2N(C(=O)OC(C)C)C[C@@H]1C [Example I-545] | 0.1 to 0.5 | 0.05 to 0.5 | 0.1 to 1 |  |
| CC(=O)N1c2ccc(-c3cnn(CCn4ccnc4)c3)cc2N(C(=O)OC(C)C)C[C@@H]1C [Example I-598] | 0.1 to 0.5 | 0.05 to 0.5 | 0.1 to 1 |  |
| CC(=O)N1c2ccc(-c3cn[nH]c3)cc2N(C(=O)c2ccco2)C[C@@H]1C [Example I-13, (S)-1-(4-(furan-2-carbonyl)-2-methyl-6-(1H-pyrazol-4-yl)-3,4-dihydro-quinoxalin-1(2H)-yl)ethanone] | 0.1 to 0.5 | < 0.05 | 0.1 to 1 |  |
| CC(=O)N1c2ccc(-c3ccc(C(=O)N4CCCN(C)CC4)cc3)cc2N(C(=O)OC(C)C)C[C@@H]1C [Example I-553] | < 0.1 | 0.05 to 0.5 | 0.1 to 1 |  |
| CC(=O)N1c2ccc(-c3cnn(C4COC4)c3)cc2N(C(=O)Oc2cccnc2)C[C@@H]1C [Example I-89, (S)-pyridin-3-yl 4-acetyl-3-methyl-7-(1-(oxetan-3-yl)-1H-pyrazol-4-yl)-3,4-dihydroquinoxaline-1(2H)-carboxylate] | 0.1 to 0.5 | < 0.05 | < 0.1 |  |
| CC(=O)N1c2ccc(-c3cnn(C4CCOCC4)c3)cc2N(C(=O)C2CC2)C[C@@H]1C [Example I-1302] | 0.1 to 0.5 | < 0.05 | 0.1 to 1 |  |
| CC(=O)N1c2ccc(-c3cnn(C4CCNCC4)c3)cc2N(C(=O)OC2CCC(F)(F)CC2)C[C@@H]1C [Example I-153, (S)-4,4-difluorocyclohexyl 4-acetyl-3-methyl-7-(1-(piperidin-4-yl)-1H-pyrazol-4-yl)-3,4-dihydroquinoxaline-1(2H)-carboxylate] | 0.1 to 0.5 | 0.05 to 0.5 | 0.1 to 1 |  |
